Reference: US9156877B2, “17-hydroxy-17-pentafluorethyl-estra-4,9(10)-dien-11-benzylidene derivatives, methods for the production thereof and use thereof for treating diseases” (Bayer Intellectual Property GmbH, priority 2009, dated 2015)
Converted amounts (≈) assume the structure as drawn.

Experiments:
[1] = molecular target: T1, human progesterone receptor A (Homo sapiens, UniProt P06401); test: Progesterone receptor-antagonistic action in stably transfected SK-N-MC cells with MMTV-LUC reporter (PR-A); type: cell-based; details: antagonistic potency against 0.1 nmol/l promegestone, 24 hours, luciferase
T1 construct: expressed in transfected cells; host or cells: SK-N-MC human neuroblastoma cells, stably transfected with pRChPR-A-neo and pMMTV-LUC
T1 sequence (P06401 1-769 isoform P06401-2): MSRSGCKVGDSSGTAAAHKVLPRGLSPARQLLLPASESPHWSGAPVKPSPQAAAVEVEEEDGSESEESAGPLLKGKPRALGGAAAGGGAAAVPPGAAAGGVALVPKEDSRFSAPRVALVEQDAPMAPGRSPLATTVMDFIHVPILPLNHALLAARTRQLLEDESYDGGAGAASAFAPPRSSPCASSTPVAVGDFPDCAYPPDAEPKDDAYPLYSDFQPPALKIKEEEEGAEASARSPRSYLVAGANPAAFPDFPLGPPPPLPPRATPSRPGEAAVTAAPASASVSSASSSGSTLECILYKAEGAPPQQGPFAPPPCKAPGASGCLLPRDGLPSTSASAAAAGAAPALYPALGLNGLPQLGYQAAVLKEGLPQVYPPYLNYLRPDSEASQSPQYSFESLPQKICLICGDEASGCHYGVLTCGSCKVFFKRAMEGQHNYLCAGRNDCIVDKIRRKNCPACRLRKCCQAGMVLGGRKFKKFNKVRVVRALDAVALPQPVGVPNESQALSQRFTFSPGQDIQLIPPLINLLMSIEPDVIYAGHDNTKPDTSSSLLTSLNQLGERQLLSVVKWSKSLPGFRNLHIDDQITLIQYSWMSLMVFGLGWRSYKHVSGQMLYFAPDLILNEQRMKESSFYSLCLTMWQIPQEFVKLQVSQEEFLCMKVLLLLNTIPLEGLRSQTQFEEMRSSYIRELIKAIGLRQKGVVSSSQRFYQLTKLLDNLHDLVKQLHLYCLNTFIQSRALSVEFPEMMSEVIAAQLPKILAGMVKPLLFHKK
Method in brief: (§1)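 SK-N-MC neuroblastoma cells stably expressing human PR-A or PR-B plus MMTV-LUC reporter, treated 24 h with test compound (0.01 nmol/l–[…]). Antagonist mode used co-treatment with 0.1 nmol/l promegestone; luciferase in lysates read as RLU, expressed as % efficacy and IC50/EC50.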

[2] = molecular target: T2, human progesterone receptor B (Homo sapiens, UniProt P06401); test: Progesterone receptor-antagonistic action in stably transfected SK-N-MC cells with MMTV-LUC reporter (PR-B); type: cell-based; details: antagonistic potency against 0.1 nmol/l promegestone, 24 hours, luciferase
T2 construct: expressed in transfected cells; host or cells: SK-N-MC human neuroblastoma cells, stably transfected with pRChPR-B-neo and pMMTV-LUC
T2 sequence (P06401 1-933): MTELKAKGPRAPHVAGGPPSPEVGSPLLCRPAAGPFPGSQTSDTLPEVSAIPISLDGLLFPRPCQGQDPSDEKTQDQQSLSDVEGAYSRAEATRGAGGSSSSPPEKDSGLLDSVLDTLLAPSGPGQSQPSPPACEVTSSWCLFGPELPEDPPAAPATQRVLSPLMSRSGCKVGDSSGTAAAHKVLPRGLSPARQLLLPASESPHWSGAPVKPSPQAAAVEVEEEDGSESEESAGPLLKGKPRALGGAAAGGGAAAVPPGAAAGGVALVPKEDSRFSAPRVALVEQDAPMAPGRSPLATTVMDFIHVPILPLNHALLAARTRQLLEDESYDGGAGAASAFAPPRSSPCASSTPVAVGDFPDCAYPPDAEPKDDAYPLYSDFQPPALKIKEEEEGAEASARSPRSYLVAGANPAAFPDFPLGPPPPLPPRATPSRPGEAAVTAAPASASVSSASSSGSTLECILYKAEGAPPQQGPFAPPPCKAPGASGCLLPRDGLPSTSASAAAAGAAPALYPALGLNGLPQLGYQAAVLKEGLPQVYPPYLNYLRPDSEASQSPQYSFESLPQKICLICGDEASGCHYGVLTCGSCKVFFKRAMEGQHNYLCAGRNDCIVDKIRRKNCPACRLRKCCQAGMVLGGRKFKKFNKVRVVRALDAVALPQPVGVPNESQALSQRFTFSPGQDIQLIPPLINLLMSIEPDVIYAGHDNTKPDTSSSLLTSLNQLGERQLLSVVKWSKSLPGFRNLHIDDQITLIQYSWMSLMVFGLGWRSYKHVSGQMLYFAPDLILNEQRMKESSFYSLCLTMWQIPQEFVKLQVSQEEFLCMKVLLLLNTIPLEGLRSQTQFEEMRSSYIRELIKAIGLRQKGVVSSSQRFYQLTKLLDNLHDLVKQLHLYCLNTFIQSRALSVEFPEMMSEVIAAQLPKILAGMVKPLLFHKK
Method in brief: as §1

[3] = Metabolic stability in human liver microsomes; type: in vitro ADME; details: for Predicted clearance [l/h/kg] Human: 1 μM, well-stirred model
Method: (§2) Determination of Metabolic Stability in Human and Rat Liver Microsomes
Isolated human liver microsomes (HLM) were used to assess the metabolic stability of compounds of general formula I.
(§3) The incubations were conducted with 2.4 ml of HLM solution (protein content 0.5 mg/ml), 30 μl of the test compound (final concentration 1 μM) and 0.6 ml of the cofactor mixture (═NADPH-generating system composed of 3 IU glucose-6-phosphate dehydrogenase, 14.6 mg glucose-6-phosphate, 1.2 mg NADP) at 37° C. in 100 mM phosphate buffer at pH 7.4. Samples were taken at 6 time points (2-60 min) and precipitated with an equal volume of methanol, and the recovery of the test substances used in the supernatant was determined by LC-MS/MS analysis. The half-life of substance degradation determined therefrom was used to calculate what is called the intrinsic clearance of the substance in the liver microsome preparation. […] In addition, under the assumptions that (i) absorption of the test substance is 100%, and (ii) the first pass is completely reflected by liver microsome metabolism, a maximum oral bioavailability (Fmax) was calculated.

[4] = Metabolic stability in rat liver microsomes; type: in vitro ADME; details: for Predicted clearance [l/h/kg] Rat: well-stirred model
Method: as §2, §3

[5] = Solubility in aqueous medium at pH 7.4; type: physicochemical; details: for solubility: aqueous medium, pH 7.4, aqueous buffer
From the text: In addition, some compounds have an unusually good solubility, for this active ingredient class, in aqueous medium under physiological conditions (Table 2).

## C=CC=Cc1ccc([C@H]2C[C@@]3(C)C(CC[C@@]3(O)C(F)(F)C(F)(F)F)C3CCC4=CC(=O)CCC4=C32)cc1 (mixture of isomers) [Example 18, (8S,11R,13S,14S,17S)-11-[((E/Z)-4-buta-1,3-dienyl)phenyl]-17-hydroxy-13-methyl-17-pentafluoroethyl-1,2,6,7,8,11,12,13,14,15,16,17-dodecahydrocyclopenta[a]phenanthren-3-one]
[1]
  IC50: 0.01 nM
[2]
  IC50: 0.02 nM
[3]
  Predicted Fmax [%] (maximum oral bioavailability) Human: 36%
  Predicted clearance [l/h/kg] Human: 0.84 L/h/kg
[4]
  Predicted Fmax [%] (maximum oral bioavailability) Rat: 57%
  Predicted clearance [l/h/kg] Rat: 1.8 L/h/kg
[5]
  solubility: 6 µg/mL

## C=Cc1ccc([C@H]2C[C@@]3(C)[C@@H](CC[C@@]3(O)C(F)(F)C(F)(F)F)[C@@H]3CCC4=CC(=O)CCC4=C32)cc1 [Example 1, (8S,11R,13S,14S,17S)-17-hydroxy-13-methyl-17-pentafluoroethyl-11-(4-vinylphenyl)-1,2,6,7,8,11,12,13,14,15,16,17-dodecahydrocyclopenta[a]phenanthren-3-one]
[2]
  IC50: 0.012 nM
[3]
  Predicted clearance [l/h/kg] Human: 0.90 L/h/kg
[4]
  Predicted clearance [l/h/kg] Rat: 1.9 L/h/kg
[5]
  solubility: 6 µg/mL (≈ 12.2 µM)

## C[C@]12C[C@H](c3ccc(/C=C/CO)cc3)C3=C4CCC(=O)C=C4CC[C@H]3[C@@H]1CC[C@@]2(O)C(F)(F)C(F)(F)F [Example 2, (8S,11R,13S,14S,17S)-17-hydroxy-11-[4-((E)-3-hydroxypropenyl)phenyl]-13-methyl-17-pentafluoroethyl-1,2,6,7,8,11,12,13,14,15,16,17-dodecahydrocyclopenta[a]phenanthren-3-one]
[1]
  IC50: 0.14 nM
[2]
  IC50: 0.25 nM
[3]
  Predicted Fmax [%] (maximum oral bioavailability) Human: 69%
  Predicted clearance [l/h/kg] Human: 0.41 L/h/kg
[4]
  Predicted Fmax [%] (maximum oral bioavailability) Rat: 69%
  Predicted clearance [l/h/kg] Rat: 1.3 L/h/kg
[5]
  solubility: 11 µg/mL (≈ 21.1 µM)

## C[C@]12C[C@H](c3ccc(/C=C/CC(C(=O)O)C(=O)O)cc3)C3=C4CCC(=O)C=C4CC[C@H]3[C@@H]1CC[C@@]2(O)C(F)(F)C(F)(F)F [Example 5, 2-{(E)-3-[4-((8S,11R,13S,14S,17S)-17-hydroxy-13-methyl-3-oxo-17-pentafluoroethyl-2,3,6,7,8,11,12,13,14,15,16,17-dodecahydro-1H-cyclopenta[a]phenanthren-11-yl)phenyl]allyl}malonic acid]
[1]
  IC50: 0.4 nM
[2]
  IC50: 0.13 nM
[3]
  Predicted Fmax [%] (maximum oral bioavailability) Human: 100%
  Predicted clearance [l/h/kg] Human: 0.00 L/h/kg
[4]
  Predicted Fmax [%] (maximum oral bioavailability) Rat: 88%
  Predicted clearance [l/h/kg] Rat: 0.5 L/h/kg
[5]; aqueous medium under physiological conditions
  solubility (in words): improved
[5]
  solubility: 203 µg/mL (≈ 334 µM)

## C[C@]12C[C@H](c3ccc(/C=C/c4ccccn4)cc3)C3=C4CCC(=O)C=C4CC[C@H]3[C@@H]1CC[C@@]2(O)C(F)(F)C(F)(F)F [Example 6, (8S,11R,13S,14S,17S)-17-hydroxy-13-methyl-17-pentafluoroethyl-11-[4-((E)-2-pyridin-2-ylvinyl)phenyl]-1,2,6,7,8,11,12,13,14,15,16,17-dodecahydrocyclopenta[a]phenanthren-3-one]
[1]
  IC50: 0.16 nM
[2]
  IC50: 0.12 nM
[3]
  Predicted Fmax [%] (maximum oral bioavailability) Human: 84%
  Predicted clearance [l/h/kg] Human: 0.21 L/h/kg
[4]
  Predicted Fmax [%] (maximum oral bioavailability) Rat: 83%
  Predicted clearance [l/h/kg] Rat: 0.7 L/h/kg
[5]
  solubility: 9 µg/mL (≈ 15.8 µM)

## C[C@]12C[C@H](c3ccc(/C=C/c4ccncc4)cc3)C3=C4CCC(=O)C=C4CC[C@H]3[C@@H]1CC[C@@]2(O)C(F)(F)C(F)(F)F [Example 8, (8S,11R,13S,14S,17S)-17-hydroxy-13-methyl-17-pentafluoroethyl-11-[4-((E)-2-pyridin-4-ylvinyl)phenyl]-1,2,6,7,8,11,12,13,14,15,16,17-dodecahydrocyclopenta[a]phenanthren-3-one]
[1]
  IC50: 0.012 nM
[2]
  IC50: 0.077 nM
[3]
  Predicted Fmax [%] (maximum oral bioavailability) Human: 87%
  Predicted clearance [l/h/kg] Human: 0.18 L/h/kg
[4]
  Predicted Fmax [%] (maximum oral bioavailability) Rat: 92%
  Predicted clearance [l/h/kg] Rat: 0.3 L/h/kg
[5]
  solubility: 7 µg/mL (≈ 12.3 µM)

## Cc1nc(/C=C/c2ccc([C@H]3C[C@@]4(C)[C@@H](CC[C@@]4(O)C(F)(F)C(F)(F)F)[C@@H]4CCC5=CC(=O)CCC5=C43)cc2)cs1 [Example 9, (8S,11R,13S,14S,17S)-17-hydroxy-13-methyl-11-{4-[(E)-2-(2-methylthiazol-4-yl)vinyl]phenyl}-17-pentafluoroethyl-1,2,6,7,8,11,12,13,14,15,16,17-dodecahydrocyclopenta[a]phenanthren-3-one]
[1]
  IC50: 0.055 nM
[2]
  IC50: 0.09 nM
[3]
  Predicted Fmax [%] (maximum oral bioavailability) Human: 68%
  Predicted clearance [l/h/kg] Human: 0.43 L/h/kg
[4]
  Predicted Fmax [%] (maximum oral bioavailability) Rat: 76%
  Predicted clearance [l/h/kg] Rat: 1.0 L/h/kg
[5]
  solubility: 8 µg/mL (≈ 13.6 µM)

## Cc1nc2cc(/C=C/c3ccc([C@H]4C[C@@]5(C)[C@@H](CC[C@@]5(O)C(F)(F)C(F)(F)F)[C@@H]5CCC6=CC(=O)CCC6=C54)cc3)ccc2s1 [Example 10, (8S,11R,13S,14S,17S)-17-hydroxy-13-methyl-11-{4-[(E)-2-(2-methylbenzothiazol-5-yl)vinyl]phenyl}-17-pentafluoroethyl-1,2,6,7,8,11,12,13,14,15,16,17-dodecahydrocyclopenta[a]phenanthren-3-one]
[1]
  IC50: 0.2 nM
[2]
  IC50: 0.86 nM
[3]
  Predicted Fmax [%] (maximum oral bioavailability) Human: 73%
  Predicted clearance [l/h/kg] Human: 0.36 L/h/kg
[4]
  Predicted Fmax [%] (maximum oral bioavailability) Rat: 76%
  Predicted clearance [l/h/kg] Rat: 1.0 L/h/kg
[5]
  solubility: 8 µg/mL (≈ 12.5 µM)
